According to patent publication US12281060B2, “Remodilins for airway remodeling and organ fibrosis” (The University of Chicago, priority 2019, dated 2025):
“Also recorded” adds a separate entry of the source.

Key:
[1] = system: serum response factor (SRF); test: Luciferase reporter assay of TGFβ-stimulated SRF activation; assay type: cell-based, human
Text: FIGS. 6A-6B. Remodilins inhibit myofibroblast transformation. Remodilin 4 inhibits TGFβ-stimulated serum response factor (SRF) activation (FIG. 6B) but not Smad signaling (FIG. 6A), as determined using luciferase reporter assays.
It is well-established that myofibroblast transformation (MFT) is a critical step in the development of pulmonafy fibrisos. […] Maintenance of Smad signaling can preserve other beneficial effects of TGFβ. As depicted in FIG. 7, four remodilins inhibited smooth muscle ACTA2 and fibronectin-1 (FN1) protein expression (markers of MFT) in dose-dependent fashion.

[2] = Plasma pharmacokinetics and tissue distribution (liver, lung, thyroid) after single oral doses; assay type: in vivo; conditions: after oral administration, 10 or 50 mg/kg; male C57Bl/6 mice
Protocol: Studies were performed to characterize plasma pharmacokinetics (PK) and tissue distribution (liver, lung, thyroid) of 5 potential lead candidates in male C57Bl/6 mice receiving single oral doses of 10 mg/kg or 50 mg/kg.

HDM-treated Balb/c mice [3] = test: HDM-induced airway constrictor hyperresponsiveness, methacholine challenge; assay type: in vivo; conditions: 12.5 mg/kg BID IP; HDM model, female Balb/c mice; vs 20% Solutol vehicle
Protocol: (§1) FIGS. 4A-4B. Effect of remodilin treatment (remodilin 83, 12.5 mg/kg BID IP) on airway constrictor hyperresponsiveness and remodeling induced by house dust mite (HDM) exposure in female Balb/c mice. FIG. 4A Airway constrictor hyperresponsiveness methacholine dose-response curves for mice treated with remodilin 83 or 20% Solutol (vehicle).
A mouse model of acute allergic asthma was used in which mice were sensitized with house dust mite (HDM) extracts. […] As depicted in FIGS. 1A and 1B, male and female Balb/c mice treated with HDM were subjected to methacholine challenge. […] The area under the curve increased by at least 3.6-fold in each sex.
(§2) As depicted in FIG. 4A, twice-daily intraperitoneal administration of remodilins (12.5 mg/kg) was evaluated.

HDM-treated Balb/c mice [4] = test: HDM-induced airway remodeling, MYH11 immunostain-positive airway smooth muscle area; assay type: in vivo; conditions: 12.5 mg/kg BID IP, HDM model, female Balb/c mice, large airways, vs 20% Solutol vehicle
Protocol: as §1
Furthermore, three-way analysis of variance (Ctrl vs HDM, Female vs Male, Small vs Large Airways) confirmed that the HDM influence on airway remodeling was significant at P=0.0007.
as §2

bleomycin-treated mice = test: Bleomycin-induced lung fibrosis in mice; assay type: in vivo; conditions: 25 mg/kg QD IP
Protocol: FIGS. 8A-8B. Treatment with remodilin 83 (25 mg/kg QD IP) reduced pulmonary fibrosis in bleomycin-treated mice. Remodilin or vehicle (DMSO) was given on days 7-21 after i.t. bleomycin (1 U/kg). Both lung hydroxyproline (FIG. 8A) and collagen levels (FIG. 8B) were lower in remodilin 83-treated mice than in control mice.
Both lung hydroxyproline (FIG. 8A) and collagen levels (FIG. 8B) were lower in remodilin 83-treated mice (systemically-administered) than in control mice.

[5] = days 7-21 after i.t. bleomycin, vs control mice

CCN(CC)S(=O)(=O)c1ccc(NC(=O)c2ccc(OC)c(I)c2)cc1 [remodilin 4, N-(4-(N,N-diethylsulfamoyl)phenyl)-3-iodo-4-methoxybenzamide]
TGFβ-stimulated serum response factor (SRF) activation [1]: inhibits

COc1ccc(C(=O)Nc2ccc(S(=O)(=O)N3CCCCC3C)cc2)cc1I (stereo not drawn) [remodilin 39, 3-Iodo-4-methoxy-N-(4-((2-methylpiperidin-1-yl)sulfonyl)phenyl) benzamide]
accumulation in lung vs. other tissues (liver, thyroid) or plasma [2]: selective accumulation

O=C(Nc1ccc(S(=O)(=O)N2CCCC2)cc1)c1ccc(Br)c(I)c1 [remodilin 50, 4-Bromo-3-iodo-N-(4-(pyrrolidin-1-ylsulfonyl)phenyl)benzamide]
accumulation in lung vs. other tissues (liver, thyroid) or plasma [2]: selective accumulation

COc1ccc(C(=O)Nc2ccc(S(=O)(=O)N3CCNCC3)cc2)cc1I [remodilin 61, 3-Iodo-4-methoxy-N-(4-(piperazin-1-ylsulfonyl)phenyl)benzamide]
accumulation in lung vs. other tissues (liver, thyroid) or plasma [2]: higher concentrations in lung; also recorded: selective accumulation

CC1CN(S(=O)(=O)c2ccc(NC(=O)c3ccc(Br)c(I)c3)cc2)CCN1 (stereo not drawn) [remodilin 83, 4-Bromo-3-iodo-N-(4-((3-methylpiperazin-1-yl)sulfonyl)phenyl)benzamide]
accumulation in lung vs. other tissues (liver, thyroid) or plasma [2]: higher concentrations in lung; also recorded: selective accumulation | development of airway constrictor hyperresponsiveness (HDM-treated Balb/c mice [3]): significantly blunted | MYH11 immunostain-positive airway smooth muscle area normalized to epithelial length (HDM-treated Balb/c mice [4]): significantly lower | MYH11 immunostain-positive airway smooth muscle area normalized to epithelial length (HDM-treated Balb/c mice [4]; listed as Remodilin 83): significantly lowered | pulmonary fibrosis (bleomycin-induced) (bleomycin-treated mice; days 7-21 after i.t. bleomycin 1 U/kg, vs DMSO vehicle): inhibitory activity; also recorded: reduced | lung collagen levels (bleomycin-treated mice; [5]): lower | lung hydroxyproline (bleomycin-treated mice; [5]): lower

CC1CNCCN1S(=O)(=O)c1ccc(NC(=O)c2ccc(Br)c(I)c2)cc1 (stereo not drawn) [remodilin 86, 4-Bromo-3-iodo-N-(4-((2-methylpiperazin-1-yl)sulfonyl)phenyl)benzamide]
accumulation in lung vs. other tissues (liver, thyroid) or plasma [2]: higher concentrations in lung; also recorded: selective accumulation
